Data reported in ChEMBL document CHEMBL4602699, “Identification and Optimization of EphA2-Selective Bicycles for the Delivery of Cytotoxic Payloads” (J Med Chem, 2020).

How the values were obtained:
[1] = in vitro; conditions: human, plasma
Description: (§1) Unbound fraction in human plasma at 2 uM incubated for 2 hrs by LC/MS/MS analysis

[2] = test system: HT-1080; test: animal or person; conditions: Rattus norvegicus, HT-1080, iv, 336 h, read-out: MED
[3] = human, plasma, 2 h, 2 µM
Description: as §1

[4] = in vitro; conditions: mouse, plasma
Description: Half life in mouse plasma at 2 uM by LC/MS/MS analysis

[5] = in vitro; conditions: human, plasma; remark: listed apart in the source
Description: Half life in human plasma at 2 uM by LC/MS/MS analysis

Compound | fraction unbound at 2 h, 2 µM [1] | minimal effective dose [2] [mg/kg] | Fu [3] | half-life at 2 µM [4] [h] | half-life at 2 µM [5] [h]
COc1cc2cc(c1Cl)N(C)C(=O)C[C@@H](OC(=O)[C@@H](C)N(C)C(=O)CCSSCCCC(=O)NCCC(=O)N(C)C(=O)CN(C)C(=O)CN(C)C(=O)CN(C)C(=O)CN(C)C(=O)CN(C)C(=O)CN(C)CC(=O)N(C)CC(=O)N(C)CC(=O)N(C)CC(=O)N[C@@H](C)C(=O)N[C@@H](CCCNC(=N)N)C(=O)N[C@@H](CC(=O)O)C(=O)N[C@H]1CSCCC(=O)N3CN4CN(C3)C(=O)CCSC[C@H](NC(=O)[C@H](CC(C)C)NC(=O)[C@@H]3CCCN3C(=O)[C@H](CC(N)=O)NC(=O)[C@H](C(C)C)NC(=O)[C@H](CC(C)C)NC(=O)[C@@H]3CCCN3C1=O)C(=O)N[C@@H](CC(C)C)C(=O)N[C@@H](Cc1c[nH]cn1)C(=O)N1CCC[C@H]1C(=O)N[C@H](CC(=O)O)C(=O)N[C@@H](CC1CCc3ccccc31)C(=O)NC(CCCCNC(=N)N)C(=O)N[C@H](C(N)=O)CSCCC4=O)[C@@]1(C)O[C@@H]1[C@@H](C)[C@H]1C[C@](O)(NC(=O)O1)[C@@H](OC)/C=C/C=C(\C)C2 (some centres undefined) | 0.44 | 3 | – | – | –
CC(C)[C@H](NC(=O)[C@@H](CC(=O)O)NC(=O)[C@H](Cc1c[nH]cn1)NC(=O)CN(C)C(=O)CN(C)C(=O)CN(C)C(=O)CN(C)CC(=O)N(C)CC(=O)N(C)CC(=O)N(C)CC(=O)N(C)CC(=O)N(C)CC(=O)N(C)C(=O)CCN)C(=O)N1CCC[C@H]1C(=O)N[C@@H]1CSCc2cc3cc(c2)CSC[C@H](C(N)=O)NC(=O)[C@@H](CC(=O)O)NC(=O)[C@@H]2CCCN2C(=O)[C@H](CCCCNC(=N)N)NC(=O)[C@H](CC(N)=O)NC(=O)[C@H](C(C)(C)C)NC(=O)[C@@H]2CCCN2C(=O)[C@H](CSC3)NC(=O)[C@H](Cc2cccc3ccccc23)NC(=O)[C@H](Cc2ccccc2)NC(=O)C(C)(C)NC(=O)CNC(=O)[C@H](Cc2cccc3ccccc23)NC(=O)C(C)(C)NC1=O | – | – | Bld | – | –
CC(=O)N[C@@H](C)C(=O)N[C@@H](CCCNC(=N)N)C(=O)N[C@@H](CC(=O)O)C(=O)N[C@@H](CS)C(=O)N1CCC[C@H]1C(=O)N[C@@H](CC(C)C)C(=O)N[C@H](C(=O)N[C@@H](CC(N)=O)C(=O)N1CCC[C@H]1C(=O)N[C@@H](CC(C)C)C(=O)N[C@@H](CS)C(=O)N[C@@H](CC(C)C)C(=O)N[C@@H](Cc1cnc[nH]1)C(=O)N1CCC[C@H]1C(=O)NCC(=O)N[C@@H](Cc1c[nH]c2ccccc12)C(=O)N[C@H](C(=O)N[C@@H](CS)C(=O)O)[C@@H](C)O)C(C)C | 0.646 | – | – | 3.6 | 3.7
CC(C)C[C@@H]1NC(=O)[C@@H]2CSCCC(=O)N3CN(CN(C3)C(=O)CCSC[C@H](NC(=O)[C@H](CC(=O)O)NC(=O)[C@H](CCCNC(=N)N)NC(=O)[C@H](C)NC(=O)CN(C)C(=O)CN(C)C(=O)CN(C)C(=O)CN(C)CC(=O)N(C)CC(=O)N(C)CC(=O)N(C)CC(=O)N(C)CC(=O)N(C)CC(=O)N(C)C(=O)CCN)C(=O)N3CCC[C@H]3C(=O)N[C@@H](CC(C)C)C(=O)N[C@@H](C(C)C)C(=O)N[C@@H](CC(N)=O)C(=O)N3CCC[C@H]3C(=O)N[C@@H](CC(C)C)C(=O)N2)C(=O)CCSC[C@@H](C(N)=O)NC(=O)C(CCCCNC(=N)N)NC(=O)[C@H](CC2CCc3ccccc32)NC(=O)[C@@H](CC(=O)O)NC(=O)[C@@H]2CCCN2C(=O)[C@H](Cc2c[nH]cn2)NC1=O (some centres undefined) | 0.41 | – | – | 33 | > 55
